The values that follow come from patent publication US5654296A, “Condensed heterocyclic compounds, their production and use” (priority 1994, dated 1997).

Counter-ions that a name gives are not always drawn.

The target of test [1] is T1, GnRH receptors (bovine pituitary anterior lobe membrane fraction) (Bos taurus, UniProt P32236).
T1 construct: A bovine pituitary anterior lobe membrane fraction containing GnRH receptors was prepared; from tissue; host or cells: bovine pituitary anterior lobe, membrane fraction
T1 sequence (P32236 1-328): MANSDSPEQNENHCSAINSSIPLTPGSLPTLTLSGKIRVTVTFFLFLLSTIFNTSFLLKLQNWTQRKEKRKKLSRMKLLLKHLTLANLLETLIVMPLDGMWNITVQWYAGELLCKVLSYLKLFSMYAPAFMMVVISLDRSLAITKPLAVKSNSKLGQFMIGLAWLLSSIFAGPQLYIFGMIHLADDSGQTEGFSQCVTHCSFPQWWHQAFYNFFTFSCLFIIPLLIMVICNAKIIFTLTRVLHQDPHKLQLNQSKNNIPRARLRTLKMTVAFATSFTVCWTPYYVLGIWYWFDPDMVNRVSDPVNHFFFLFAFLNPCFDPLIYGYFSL
The test is described as follows: 125I-leuprolerin GnRH receptor binding inhibition test, bovine pituitary anterior lobe membrane fraction. As to conditions: 4° C., 90 minutes, read-out: Binding inhibitory activity (IC50 μM) Bovine. As to the method:
Ten (10) μl of 3×10^4 M aqueous leuprolerin solution and 10 μl of 0.01 mg/ml lactoperoxidase were taken in a tube and 10 μl of Na^125 I solution (37 MBq) was added. After stirring, 10 μl of 0.001% H2 O2 was added and the reaction was conducted at room temperature for 20 minutes. Then, 700 μl of 0.05% TFA solution was added to the tube to terminate the reaction and the reaction mixture was purified by reverse-phase HPLC. The HPLC conditions are shown below. ^125 I-leuprolerin was eluted after a retention time of 26-27 minutes. (C) Preparation of a Bovine Pituitary Anterior Lobe Membrane Fraction Containing GnRH Receptors A bovine pituitary anterior lobe membrane fraction containing GnRH receptors was prepared by the same procedure as described under (B). However, a 10,000×G centrifugation supernatant was recentrifuged at 100,000×G for 1 hour to provide the membrane fraction pellet. […] For the rat and human membrane fractions prepared in (B) and (D), each membrane fraction was diluted with assay buffer to a concentration of 200 μg/ml and distributed in 188 μl portions into tubes. As to the bovine membrane fraction prepared in (C), the membrane fraction was diluted with assay buffer to 750 μg/ml and distributed in 188 μl portions into tubes. […] Where the rat or bovine pituitary anterior lobe membrane fraction was used, the reaction was conducted at 4° C. for 90 minutes. Where the membrane fraction of the CHO with human GnRH receptors expressed was used, the reaction was carried out at 25° C. for 60 minutes. […] After filtration, the radioactivity of ^125 I-leuprolerin remaining on the filter was measured with a γ-counter. The expression (TB-SB)/(TB-NSB)×100 (where SB=radioactivity with the compound added, TB=maximum bound radioactivity, NSB=nonspecifically bound radioactivity) was calculated to find the binding inhibition rate of each test compound.

Test [2] has as its target T2, human GnRH receptors (Homo sapiens, UniProt P30968).
T2 construct: expressed in transfected cells; host or cells: CHO (Chinese hamster ovary) cells, membrane fraction
T2 sequence (P30968 1-328): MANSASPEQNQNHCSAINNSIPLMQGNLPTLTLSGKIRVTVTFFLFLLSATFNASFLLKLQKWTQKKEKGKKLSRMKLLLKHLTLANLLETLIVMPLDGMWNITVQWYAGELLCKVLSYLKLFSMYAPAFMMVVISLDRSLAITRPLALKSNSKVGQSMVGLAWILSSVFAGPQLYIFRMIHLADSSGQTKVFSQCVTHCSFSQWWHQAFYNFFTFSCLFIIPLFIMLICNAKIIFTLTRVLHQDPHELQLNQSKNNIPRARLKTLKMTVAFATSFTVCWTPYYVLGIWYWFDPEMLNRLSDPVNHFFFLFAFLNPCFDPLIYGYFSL
Description: 125I-leuprolerin GnRH receptor binding inhibition test, human (CHO cell membrane fraction). As to conditions: human GnRH receptors expressed in CHO cells, 25° C., 60 minutes, read-out: Binding inhibitory activity (IC50 μM) Human. Here is the method:
Ten (10) μl of 3×10^4 M aqueous leuprolerin solution and 10 μl of 0.01 mg/ml lactoperoxidase were taken in a tube and 10 μl of Na^125 I solution (37 MBq) was added. After stirring, 10 μl of 0.001% H2 O2 was added and the reaction was conducted at room temperature for 20 minutes. Then, 700 μl of 0.05% TFA solution was added to the tube to terminate the reaction and the reaction mixture was purified by reverse-phase HPLC. The HPLC conditions are shown below. ^125 I-leuprolerin was eluted after a retention time of 26-27 minutes. (D) Preparation of a CHO (Chinese Hamster Ovarian) Cell Membrane Fraction Containing Human GnRH Receptors […] To the cell pellet was added 10 ml of cell homogenate buffer (10 mM NaHCO3, 5 mM EDTA, pH 7.5) and the mixture was homogenized using a Polytron homogenizer. The homogenate was centrifuged at 400×G for 15 minutes. The supernatant was taken in an ultracentrifuge tube and centrifuged at 100,000×G for 1 hour to provide a membrane fraction pellet. […] After filtration, the radioactivity of ^125 I-leuprolerin remaining on the filter was measured with a γ-counter. The expression (TB-SB)/(TB-NSB)×100 (where SB=radioactivity with the compound added, TB=maximum bound radioactivity, NSB=nonspecifically bound radioactivity) was calculated to find the binding inhibition rate of each test compound.

In the case of `COc1cc2c(cc1OC)CC1(CCCCN1CCCCC1(c3ccccc3)COCc3ccccc31)CC2` (stereo not shown) [Example I-52, 3,4-Dihydro-6,7-dimethoxy-1'-[4-(4-phenylisochroman-4-yl)butyl]spiro[naphthalene-2(1H),2'-piperidine] hydrochloride], the figures for the IC50 in test [1] and in test [2] were 5 µM and 6 µM, respectively.
In the same order, the values of `COC(=O)c1cccc(CNCCCC2(c3ccccc3)COCc3ccccc32)c1` (stereo not drawn) [Example I-45, Methyl α-[3-(4-Phenylisochroman-4-yl)propylamino]-m-toluate hydrochloride] are 5 µM and 6 µM.
Regarding `c1ccc(CCNCCCC2(c3ccccc3)COCc3ccccc32)cc1` (stereo not drawn) [Example I-24, 4-[3-(β-Phenethylamino)propyl]-4-phenylisochroman hydrochloride], the 50% inhibitory concentration (IC50) in test [1] amounted to 7 µM.
Still for that read-out and setting: the same measure for `c1ccc(C2(CCCN3CCCCC34CCc3ccccc3C4)COCc3ccccc32)cc1` (stereo not shown) [Example I-35, 3,4-Dihydro-1'-[3-(4-phenylisochroman-4-yl)propyl]spiro[naphthalene-2(1H),2'-piperidine] hydrochloride]: 6 µM; for `COc1ccc2c(c1)CCC1(CCCCN1CCCC1(c3ccccc3)COCc3ccccc31)C2` (stereo not shown) [Example I-36, 3,4-Dihydro-6-methoxy-1'-[3-(4-phenylisochroman-4-yl)propyl]spiro[naphthalene-2(1H),2'-piperidine] hydrochloride]: 11 µM.

For orientation: IC50 means the concentration that inhibits the measured activity by half.
